Data on 4 substances can be found in patent US9474911B2, “Delivery of large molecular weight biologically active substances” (PhotoKinetix Holdings Inc., priority 2011, dated 2016).

Like-named read-outs stand apart in the source and are kept apart here.

For series [1] the following is noted: 24 hours.
For series [2] the following is noted: 450 nm light pulsed at 100 cps; 24 hours; p<0.05.
For series [3] the following is noted: diabetic rats; photokinetic delivery (Kulp et al., 2010); cited from earlier work.

For “Hyaluronic acid [69 kDa hyaluronic acid]”, the “transdermal flux rate, 24 cps compared to 100 cps” value in series [1] (405 nm light, p<0.05) was “significantly higher than 405 nm light pulsed at 100 cps”. Further, the “transdermal flux rate, photokinetic compared to passive permeation” value in series [1] is “significantly higher than passive permeation”. For the same substance, the “intradermal deposition, photokinetic compared to passive control” value in series [2] is “significantly higher intradermal deposition”.

With “Hyaluronic acid [2,100 kDa hyaluronic acid]”, the “transdermal flux rate, photokinetic compared to passive permeation control” value in series [1] (390, 405 and 450 nm at 24 cps and 405 nm at 100 cps, p<0.05) is recorded as “significantly higher than passive permeation control samples”. Also, the “transdermal flux rate, 24 cps compared to 100 cps” value in series [1] (390 nm, 405 nm and 436 nm light, p<0.05) was “significantly higher than 390 nm, 405 nm, and 436 nm light pulsed at 100 cps”.

Turning to “insulin: insulin, molecular weight of about 5,730 Da”, the blood sugar levels result in series [3] is listed as “blood sugar levels were reduced”.

With “HGH: Human growth hormone with a molecular weight of 22,124 Da”, the “transdermal permeation flux of HGH, photokinetic compared to passive permeation” value in series [1] (350, 390, 405 and 450 nm at 24 cps, donor 270 ng/ml, p<0.001) is “significantly increased”.
